Test results as given in PubChem BioAssay (NCI).
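Cells were grown in 96-well plates and exposed to each compound for 48 hours at five concentrations; endpoints were interpolated linearly between bracketing concentrations, or set to the highest concentration if not reached. GI50: concentration for 50% inhibition of growth. At the TGI there is no net growth.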

Tests used:
Assay in all cases: NCI anticancer screen, dose series, 48 h
[1] = tested on: MOLT-4 leukemia
[2] = tested on: IGROV1 ovarian
[3] = tested on: COLO 205 colon
[4] = tested on: ACHN renal
[5] = tested on: DMS 114 small cell lung
[6] = tested on: CCRF-CEM leukemia
[7] = tested on: U251 CNS
[8] = tested on: OVCAR-4 ovarian
[9] = tested on: UACC-257 melanoma
[10] = tested on: HS 578T breast

| SMILES | TGI [1] | TGI [2] | TGI [3] | TGI [4] | TGI [5] | TGI [6] | TGI [7] | TGI [8] | TGI [9] | TGI [10] | GI50 [1] | GI50 [10] | GI50 [2] | GI50 [4] | GI50 [6] | GI50 [7] | GI50 [8] |
| --- | --- | --- | --- | --- | --- | --- | --- | --- | --- | --- | --- | --- | --- | --- | --- | --- | --- |
| O=C1C(Cl)C(c2ccc([N+](=O)[O-])cc2)N1n1cnc2ccccc2c1=O (stereo not given) | > 100 µM | > 100 µM | > 100 µM | > 100 µM | > 100 µM | > 100 µM | > 100 µM | 25.2 µM | > 100 µM | – | – | – | – | – | – | – | – |
| O=C(CSc1nnc(-c2ccc(N=Cc3ccc(Cl)cc3)cc2)o1)Nc1cccc([N+](=O)[O-])c1 | > 100 µM | – | > 100 µM | > 100 µM | > 100 µM | > 100 µM | > 100 µM | > 100 µM | > 100 µM | – | – | – | – | – | – | – | – |
| CC(=O)Nc1ccc(C(=O)n2[nH]c(C)c(/C=C3\C(=O)C=Cc4ccccc43)c2=O)cc1 | > 100 µM | – | > 100 µM | > 100 µM | > 100 µM | > 100 µM | – | > 100 µM | > 100 µM | – | – | – | – | – | – | – | – |
| COc1cc(CC(=O)c2cc3c(cc2-c2ccccc2)OCO3)cc(OC)c1OC | > 100 µM | > 100 µM | > 100 µM | > 100 µM | > 100 µM | > 100 µM | > 100 µM | > 100 µM | > 100 µM | – | – | – | – | – | – | – | – |
| CCCCc1c2c(nc3c1CCCC3=O)CCCC2 | > 100 µM | > 100 µM | > 100 µM | > 100 µM | > 100 µM | > 100 µM | > 100 µM | – | – | – | – | – | – | – | – | – | – |
| C[C@]12CCC(=O)C=C1CC[C@@H]1C2CC[C@@]2(C)C1CC[C@@H]2OC(=O)C12OC1CCC2=O (stereo not given in full) | 32.6 µM | 23.6 µM | 34.4 µM | 29.3 µM | 34.3 µM | 32.6 µM | 29.1 µM | 41.5 µM | 35.9 µM | – | – | – | – | – | – | – | – |
| Brc1ccc(C[N+]23CN4CN(CN(C4)C2)C3)cc1 | 69 µM | > 100 µM | 69.4 µM | > 100 µM | 51.1 µM | 62.9 µM | > 100 µM | – | > 100 µM | – | – | – | – | – | – | – | – |
| O=C1NC2OC(CO)C(O)C(O)C2O1 (stereo not given) | > 100 µM | > 100 µM | > 100 µM | > 100 µM | > 100 µM | > 100 µM | > 100 µM | > 100 µM | > 100 µM | – | – | – | – | – | – | – | – |
| COc1ccc(C2NC3=C(CCCC3)N2)cc1 | > 100 µM | > 100 µM | > 100 µM | > 100 µM | > 100 µM | > 100 µM | > 100 µM | > 100 µM | > 100 µM | – | – | – | – | – | – | – | – |
| CCOC(=O)[C@@]12NN=N[C@@H]1[C@H]1CO[C@H](c3ccccc3)N1C2=O | > 100 µM | 20.3 µM | 23.5 µM | 28.2 µM | – | > 100 µM | 18.4 µM | 32.4 µM | 19.7 µM | 17.8 µM | – | – | – | – | – | – | – |
| COc1cc(C2c3cc4c(cc3OC(NNc3ccccc3)C2C)OCO4)cc(OC)c1O (stereo not given) | 11.2 µM | 24.6 µM | 17.9 µM | 10.4 µM | – | 21.3 µM | 16.3 µM | 38.2 µM | 20 µM | 12 µM | – | – | – | – | – | – | – |
| CC1=C(C(=O)NCCCN(CCO)CCO)CC(C(=O)NCCCN(CCO)CCO)=C(C)N1 | > 100 µM | > 100 µM | > 100 µM | > 100 µM | – | 77.9 µM | > 100 µM | > 100 µM | > 100 µM | > 100 µM | – | – | – | – | – | – | – |
| Nc1nc(N)c2nc(CNc3ccc(C(=O)NC(CCNC(=O)c4ccccc4C(=O)O)C(=O)O)cc3)cnc2n1 (stereo not given) | > 100 µM | > 100 µM | > 100 µM | > 100 µM | – | > 100 µM | > 100 µM | > 100 µM | > 100 µM | > 100 µM | 0.0453 µM | 0.49 µM | 0.0358 µM | 0.0451 µM | 0.0065 µM | – | – |
| COc1cc(/C=C/c2ccc(S(N)(=O)=O)cc2)cc(OC)c1 | 43.9 µM | 45.5 µM | 32.4 µM | 66.3 µM | – | 52.3 µM | > 100 µM | 50.9 µM | 46.8 µM | 48.5 µM | 18.6 µM | 20.1 µM | 23.1 µM | 23.5 µM | 19.9 µM | 17.1 µM | 21.2 µM |
| Cc1csc2c(=O)n(COCc3ccccc3)c(=O)[nH]c12 | > 100 µM | > 100 µM | > 100 µM | > 100 µM | – | > 100 µM | > 100 µM | > 100 µM | > 100 µM | > 100 µM | – | – | – | – | – | – | – |
| O=C1C=CC(=O)[C@H]2C3C=CC(C4C3C3(Cl)C(Cl)=C(Cl)[C@]4(Cl)C3(Cl)Cl)[C@@H]12 (stereo not given in full) | 36 µM | 18.4 µM | 19.1 µM | 20.9 µM | – | 16.2 µM | 13.3 µM | 16.2 µM | 6.23 µM | 31.2 µM | – | – | – | – | – | – | – |
| O=C1c2c(F)c(F)c(F)c(F)c2SC2=Nc3cccc4cccc(c34)N12 | 6.01 µM | 24.1 µM | 22.8 µM | 16.8 µM | – | > 25.1 µM | 10.7 µM | 9 µM | 13.2 µM | 7.73 µM | – | – | – | – | – | – | – |

| SMILES | TGI [1] | TGI [2] | TGI [3] | TGI [4] | TGI [5] | TGI [6] | TGI [7] | TGI [8] | TGI [9] | TGI [10] | GI50 [1] | GI50 [10] | GI50 [2] | GI50 [4] | GI50 [6] | GI50 [7] | GI50 [8] |
| --- | --- | --- | --- | --- | --- | --- | --- | --- | --- | --- | --- | --- | --- | --- | --- | --- | --- |
| O=C(NCCCc1cn[nH]c(=O)n1)c1cccc2nc3ccccc3nc12 | > 100 µM | > 100 µM | > 100 µM | > 100 µM | – | > 100 µM | > 100 µM | > 100 µM | > 100 µM | > 100 µM | – | – | – | – | – | – | – |
| O=C(CBr)NCCc1c[nH]c2ccccc12 | 1.92 µM | 4.22 µM | 3.19 µM | 3.2 µM | – | 0.552 µM | 3.53 µM | 4 µM | 8.54 µM | 42.2 µM | – | – | – | – | – | – | – |
| Nc1ccn(CCCC(c2ccccc2)P(=O)(O)O)c(=O)n1 (stereo not given) | – | > 100 µM | > 100 µM | > 100 µM | > 100 µM | > 100 µM | > 100 µM | – | > 100 µM | – | – | – | – | – | – | – | – |
| CC1(C)OC2OC(C(=O)c3ccccc3)C3OC(C)(C)OC3C2O1 (stereo not given) | > 100 µM | > 100 µM | > 100 µM | > 100 µM | – | > 100 µM | > 100 µM | > 100 µM | > 100 µM | > 100 µM | – | – | – | – | – | – | – |
| COc1ccc(N2C(=O)C3C=CC(n4[nH]c(=O)n(Cc5ccccc5)c4=O)CC3C2=O)cc1 (stereo not given) | > 100 µM | > 100 µM | > 100 µM | > 100 µM | > 100 µM | > 100 µM | > 100 µM | – | > 100 µM | – | – | – | – | – | – | – | – |
| CCOC(=O)C1=C(O)c2ccc(OC)cc2C(=O)C1=O | > 100 µM | > 100 µM | > 100 µM | > 100 µM | > 100 µM | > 100 µM | > 100 µM | > 100 µM | > 100 µM | – | – | – | – | – | – | – | – |
| COc1ccc(Oc2nc3c(N)cc(C(F)(F)F)cc3nc2-c2ccccc2)cc1 | > 100 µM | 43.5 µM | 25.6 µM | > 100 µM | – | > 100 µM | > 100 µM | > 100 µM | > 100 µM | 43 µM | – | – | – | – | – | – | – |
| COc1ccc(/C=C(\C2=NC(=O)CS2)c2nc3ccccc3[nH]2)cc1 | > 100 µM | > 100 µM | > 100 µM | > 100 µM | > 100 µM | > 100 µM | > 100 µM | > 100 µM | > 100 µM | – | – | – | – | – | – | – | – |
| CP(=O)(O)C(N)c1ccccc1 (stereo not given) | > 100 µM | > 100 µM | > 100 µM | > 100 µM | – | > 100 µM | > 100 µM | > 100 µM | > 100 µM | > 100 µM | – | – | – | – | – | – | – |
| COC(=O)C1Cc2c([nH]c3ccccc23)-c2[nH]c3ccccc3c2CC(NC(C)=O)C(=O)N2CCCC2C(=O)N1 (stereo not given) | > 100 µM | > 100 µM | > 100 µM | > 100 µM | – | > 100 µM | > 100 µM | > 100 µM | > 100 µM | > 100 µM | – | – | – | – | – | – | – |
| O=C1c2ccccc2C(=O)c2c(NCC3CO3)cccc21 (stereo not given) | 14.7 µM | > 60.3 µM | > 100 µM | 31.4 µM | – | 7.71 µM | > 100 µM | > 100 µM | > 100 µM | > 100 µM | – | – | – | – | – | – | – |
| NCCN(CCN)/[N+]([O-])=N/O | > 100 µM | > 100 µM | > 100 µM | > 100 µM | – | > 100 µM | > 100 µM | > 100 µM | > 100 µM | > 100 µM | – | – | – | – | – | – | – |
| COc1ccc(OC)c(-c2cc(=O)c3cc4c(cc3[nH]2)OCO4)c1 | > 84.9 µM | > 100 µM | 7.93 µM | > 80.2 µM | 13.9 µM | > 100 µM | > 77.9 µM | > 100 µM | > 100 µM | – | – | – | – | – | – | – | – |
| Cc1cc2c(cc1-c1cc3c(cc1C)C(C(C)C)=C(O)C(=O)/C3=C\Nc1ccccn1)/C(=C/Nc1ccccn1)C(=O)C(O)=C2C(C)C | > 100 µM | > 100 µM | > 100 µM | > 100 µM | – | > 100 µM | > 100 µM | > 100 µM | > 100 µM | > 100 µM | – | – | – | – | – | – | – |
| COc1c(C)c(C/C=C(\C)CCCCO)c(OC)c2ccccc12 | 43.1 µM | > 100 µM | > 100 µM | > 100 µM | – | 63 µM | > 100 µM | > 100 µM | > 100 µM | > 100 µM | – | – | – | – | – | – | – |
| O=P(Nc1cccc(Cl)c1)(Oc1ccccc1)N(CCCl)CCCl (stereo not given) | > 100 µM | 30.4 µM | 29.3 µM | 47.3 µM | 26.1 µM | > 100 µM | 28.3 µM | 25.4 µM | 27.2 µM | – | – | – | – | – | – | – | – |
